Patent US20260053902A1, “COMPOSITIONS AND METHODS FOR REDUCING THE RATE OF TYPE 1 DIABETES” (Wisconsin Alumni Research Foundation, priority 2023, published 2026)

Assays:
NOD mouse = test: Rate of type 1 diabetes and final blood glucose in treated female NOD/ShiLtJ mice; type: in vivo; conditions: 20 μmol/kg IP in saline until age 58-61 days; age 34 weeks
Description: Mouse care: NOD/ShiLtJ mice were from The Jackson Laboratory (Bar Harbor, ME, USA). Mice were housed under standard conditions (20-24° C., humidity 30-70%, lighting regimen 12 h light/12 h dark) in the University of Wisconsin Biomedical Research Model Service that is a specific pathogen free level 1 facility. […] Mice had access to acidified water or water containing a chemical and/or green tea ad libitum. All procedures were approved by the Research Animal Resources and Compliance veterinary care authority of the University of Wisconsin, Madison.
Mouse treatments: Mice were given chemicals by intraperitoneal injection and/or by gavage and/or in drinking water. Water-soluble chemicals were administered in a solution of sodium chloride adjusted to have a final osmolality of 0.5-0.9%. Lipid soluble chemicals were dissolved in olive oil, peanut oil, corn oil, Mazola® oil or canola oil.
Starting at age 2 to 5 days mice were given injections on every third or fourth day for 2 to 4 weeks (usually 2 to 2.5 weeks) for the first 4 or 6 injections, and thereafter twice per week on Mondays and Thursdays until up to age 100 days. In some instances, pregnant and nursing mice were given chemicals in drinking water starting at about the middle or late pregnancy continuing during nursing and also continuing for various lengths of time to the offspring with or without additional intraperitoneal injections of chemicals. In other instances, chemicals were delivered by intraperitoneal injection into pregnant mice and continued after delivery into the mouse pups. Chemicals, for example EGCG, were also delivered in drinking water starting before birth to the pregnant mouse mother and/or continuing and/or starting ad libitum to the mice after birth usually until at least 100 days of age or throughout life.
Chemicals given in distilled drinking water were green tea (as a source of EGCG and other catechins) (Lipton® 100% Natural Green Tea). […] The tea water was given alone and also in combination with acetaminophen 2 g/l in the same water.
In most cases nondiabetic mice were euthanized at 40-41 weeks of age. Statistical significances of the frequencies of diabetes in the mice receiving test treatments were compared to the rates of diabetes in mice receiving control treatments and were calculated with the Chi square test and with the Chi square test with Yate's correction.
In most of the studies, control solutions and the other treatments were administered to the mice until they were 100 days old. Mice without diabetes were euthanized at 40-41 weeks of age. Diabetic mice were euthanized when their blood glucose levels reached a level that met the criteria for diabetes.
Administration of water-soluble chemicals serving as controls to NOD mice: Control solutions were the vehicles in which chemicals were dissolved. Control solutions were usually administered to mouse litters from the same shipments as the litters receiving test chemicals and/or litters from the same parents as the litters receiving test chemicals and were administered during the same month and year as treatments to the litters receiving test treatments. Statistical probabilities between the rates of diabetes in the litters receiving test treatments were compared to litters simultaneously receiving control treatments.

mice = conditions: mouse, in vivo
Text: Intraperitoneal injections of water-soluble chemicals were given in normal saline (0.9% sodium chloride).

## COC1=C(OC)C(=O)C(C)=CC1=O [CoQ0, 2,3-dimethoxy-5-methyl-1,4-benzoquinone, reference compound]
NOD mouse
  Diabetes (%): 83%
  Final Blood Glucose (mean ± SE) diabetic: 649 ± 53 mg glucose/dl
  Final Blood Glucose (mean ± SE) non-diabetic: 183 ± 28 mg glucose/dl
mice
  toxicity: toxicity to the mice
